Measurements reported in US9468661B2, “Pyrrolidine derivatives and their use as complement pathway modulators” (priority 2012, dated 2016).

The compounds below were run against human factor D (Homo sapiens (Human), UniProt P00746) (assay: biochemical). Details: Factor D inhibition data using Method 1; recombinant human factor D 10 nM, substrate Z-Lys-thiobenzyl, fluorescence; read-out: IC50.
Type: biochemical
Procedure, shortened: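 E. coli-expressed recombinant human factor D (10 nM) was preincubated with compound for 1 h at room temperature in 0.1 M Hepes pH 7.5, 1 mM MgCl2, 1 M NaCl, 0.05% CHAPS. Fluorescence (ex 485/em 535 nm) was read after adding Z-Lys-thiobenzyl (200 μM) and 2,4-dinitrobenzenesulfonyl-fluoresceine (25 μM); IC50 came from percent inhibition versus concentration.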

human factor D, sequence (P00746 26-253): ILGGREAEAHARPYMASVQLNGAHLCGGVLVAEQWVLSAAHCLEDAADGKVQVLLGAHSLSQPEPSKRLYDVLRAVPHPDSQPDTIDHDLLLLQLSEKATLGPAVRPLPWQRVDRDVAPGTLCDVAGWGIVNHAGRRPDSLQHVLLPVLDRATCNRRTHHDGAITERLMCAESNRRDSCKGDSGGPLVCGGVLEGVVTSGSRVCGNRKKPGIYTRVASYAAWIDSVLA

Row | SMILES | IC50 [nM]
1 | NC(=O)c1nn(CC(=O)N2[C@@H]3C[C@@H]3C[C@H]2C(=O)NC[C@H]2CC2(Cl)Cl)c2ccc(OCc3nccs3)cc12 [Example 40, 1-(2-{(1R,3S,5R)-3-[((R)-2,2-Dichloro-cyclopropylmethyl)-carbamoyl]-2-aza-bicyclo[3.1.0]hex-2-yl}-2-oxo-ethyl)-5-(thiazol-2-ylmethoxy)-1H-indazole-3-carboxylic acid amide] | 7
2 | NC(=O)c1nn(CC(=O)N2[C@H](C(=O)NC[C@H]3CC3(Cl)Cl)C[C@@]3(CO)C[C@@H]23)c2ccccc12 [Example 52, 1-(2-{(1R,3S,5S)-3-[((R)-2,2-Dichloro-cyclopropylmethyl)-carbamoyl]-5-hydroxymethyl-2-aza-bicyclo[3.1.0]hex-2-yl}-2-oxo-ethyl)-1H-indazole-3-carboxylic acid amide] | 56
3 | NC(=O)c1nn(CC(=O)N2[C@@H]3C[C@@H]3C[C@H]2C(=O)NC[C@H]2CC2(Cl)Cl)c2cc(Cl)ccc12 [Example 114, 6-Chloro-1-(2-{(1R,3S,5R)-3-[((R)-2,2-dichloro-cyclopropylmethyl)-carbamoyl]-2-aza-bicyclo[3.1.0]hex-2-yl}-2-oxo-ethyl)-1H-indazole-3-carboxylic acid amide] | 40
4 | CC(=O)c1nn(CC(=O)N2[C@@H]3C[C@@H]3C[C@H]2C(=O)NC[C@H]2CC2(Cl)Cl)c2ccc(CCc3ncccn3)cc12 [Example 43, (1R,3S,5R)-2-{2-[3-Acetyl-5-(2-pyrimidin-2-yl-ethyl)-indazol-1-yl]-acetyl}-2-aza-bicyclo[3.1.0] hexane-3-carboxylic acid ((R)-2,2-dichloro-cyclopropylmethyl)-amide] | 71
5 | CC(=O)c1nn(CC(=O)N2[C@@H]3C[C@@H]3C[C@H]2C(=O)N[C@H](C)[C@H]2CC2(Cl)Cl)c2ccc(OCc3ccn(C)n3)cc12 [Example 66, (1R,3S,5R)-2-{2-[3-Acetyl-5-(1-methyl-1H-pyrazol-3-ylmethoxy)-indazol-1-yl]-acetyl}-2-aza-bicyclo[3.1.0]hexane-3-carboxylic acid [(R)-1-((R)-2,2-dichloro-cyclopropyl)-ethyl]-amide] | 4
6 | CC(=O)c1nn(CC(=O)N2[C@@H]3C[C@@H]3C[C@H]2C(=O)N[C@H](C)[C@H]2CC2(Cl)Cl)c2ccccc12 [Example 46, (1R,3S,5R)-2-[2-(3-Acetyl-indazol-1-yl)-acetyl]-2-aza-bicyclo[3.1.0]hexane-3-carboxylic acid [(R)-1-((R)-2,2-dichloro-cyclopropyl)-ethyl]-amide] | 12
7 | CC1CCCC1CNC(=O)[C@@H]1C[C@H]2C[C@H]2N1C(=O)Cn1nc(C(N)=O)c2ccncc21 (single isomer, unassigned; dia 2) [Example 86] | 610
8 | CC(=O)c1nn(CC(=O)N2[C@@H]3C[C@@H]3C[C@H]2C(=O)N[C@H](CO)C2CCCCC2)c2cnccc12 [Example 9, (1R,3S,5R)-2-[2-(3-Acetyl-pyrazolo[3,4-c]pyridin-1-yl)-acetyl]-2-aza-bicyclo[3.1.0] hexane-3-carboxylic acid ((S)-1-cyclohexyl-2-hydroxy-ethyl)-amide] | 469
9 | CC(=O)c1nn(CC(=O)N2[C@@H]3C[C@@H]3C[C@H]2C(=O)NCC2CC(C)C2)c2ccc(OCc3ncccn3)cc12 (mixture of isomers) [Example 65, (1R,3S,5R)-2-{2-[3-Acetyl-5-(pyrimidin-2-ylmethoxy)-indazol-1-yl]-acetyl}-2-aza-bicyclo[3.1.0] hexane-3-carboxylic acid (3-methyl-cyclobutylmethyl)-amide (mixture of 4 diastereoisomers)] | 20
10 | CC(=O)c1nn(CC(=O)N2[C@@H]3C[C@@H]3C[C@H]2C(=O)NC[C@@H]2CC2(Cl)Cl)c2ccc(OCc3ncccn3)cc12 [Example 93, (1R,3S,5R)-2-{2-[3-Acetyl-5-(pyrimidin-2-ylmethoxy)-indazol-1-yl]-acetyl}-2-aza-bicyclo[3.1.0] hexane-3-carboxylic acid ((S)-2,2-dichloro-cyclopropylmethyl)-amide] | 19
11 | Cc1nccc2c(C(N)=O)nn(CC(=O)N3[C@@H]4C[C@@H]4C[C@H]3C(=O)NC[C@H]3CC3(Cl)Cl)c12 [Example 112, 1-(2-{(1R,3S,5R)-3-[((R)-2,2-Dichloro-cyclopropylmethyl)-carbamoyl]-2-aza-bicyclo[3.1.0]hex-2-yl}-2-oxo-ethyl)-7-methyl-1H-pyrazolo[3,4-c]pyridine-3-carboxylic acid amide] | 188
12 | C[C@@]1(F)C[C@@H](C(=O)NC[C@H]2CC2(Cl)Cl)N(C(=O)Cn2nc(C(N)=O)c3ccccc32)C1 [Example 60, 1-(2-{(2S,4R)-2-[((R)-2,2-Dichloro-cyclopropylmethyl)-carbamoyl]-4-fluoro-4-methyl-pyrrolidin-1-yl}-2-oxo-ethyl)-1H-indazole-3-carboxylic acid amide] | 124
13 | CC1CCCC(CNC(=O)[C@@H]2C[C@H]3C[C@H]3N2C(=O)Cn2nc(C(N)=O)c3ccncc32)C1 (single isomer, unassigned; dia 4) [Example 118] | 159
14 | CC(=O)c1nn(CC(=O)N2[C@@H]3C[C@@H]3C[C@H]2C(=O)N[C@@H](C)C2CCCCC2)c2cnccc12 [Example 5, (1R,3S,5R)-2-[2-(3-Acetyl-pyrazolo[3,4-c]pyridin-1-yl)-acetyl]-2-aza-bicyclo[3.1.0] hexane-3-carboxylic acid ((S)-1-cyclohexyl-ethyl)-amide] | 5250
15 | CC(=O)c1nn(CC(=O)N2[C@@H]3C[C@@H]3C[C@H]2C(=O)NC[C@H]2CC2(Cl)Cl)c2ccc(O)cc12 [Example 122, (1R,3S,5R)-2-[2-(3-Acetyl-5-hydroxy-indazol-1-yl)-acetyl]-2-aza-bicyclo[3.1.0]hexane-3-carboxylic acid ((R)-2,2-dichloro-cyclopropylmethyl)-amide] | 58
16 | CC1(C)[C@H](CNC(=O)[C@@H]2C[C@H]3C[C@H]3N2C(=O)Nc2cn(C(N)=O)c3ccccc23)C1(Cl)Cl [Example 27, (1R,3S,5R)-2-Aza-bicyclo[3.1.0]hexane-2,3-dicarboxylic acid 2-[(1-carbamoyl-1H-indol-3-yl)-amide] 3-[((R)-2,2-dichloro-3,3-dimethyl-cyclopropylmethyl)-amide]] | 19
17 | C[C@@H](NC(=O)[C@@H]1C[C@H]2C[C@H]2N1C(=O)Nc1cn(C(N)=O)c2ccccc12)C1CCCCC1 [Example 28, (1R,3S,5R)-2-Aza-bicyclo[3.1.0]hexane-2,3-dicarboxylic acid 2-[(1-carbamoyl-1H-indol-3-yl)-amide] 3-[((R)-1-cyclohexyl-ethyl)-amide]] | 78
18 | CC(=O)c1nn(CC(=O)N2[C@@H]3C[C@@H]3C[C@H]2C(=O)NCC2CC3(CC3)C2)c2cnccc12 [Example 8, (1R,3S,5R)-2-[2-(3-Acetyl-pyrazolo[3,4-c]pyridin-1-yl)-acetyl]-2-aza-bicyclo[3.1.0] hexane-3-carboxylic acid (spiro[2.3]hex-5-ylmethyl)-amide] | 498
19 | CCc1cc2c(C(N)=O)nn(CC(=O)N3[C@@H]4C[C@@H]4C[C@H]3C(=O)N[C@H](C)[C@H]3CC3(Cl)Cl)c2cn1 [Example 39, 1-(2-{(1R,3S,5R)-3-[(R)-1-((R)-2,2-Dichloro-cyclopropyl)-ethylcarbamoyl]-2-aza-bicyclo[3.1.0]hex-2-yl}-2-oxo-ethyl)-5-ethyl-1H-pyrazolo[3,4-c] pyridine-3-carboxylic acid amide] | 27
20 | CC1CCCC(CNC(=O)[C@@H]2C[C@H]3C[C@H]3N2C(=O)Cn2nc(C(N)=O)c3ccncc32)C1 (single isomer, unassigned; dia 1) [Example 115] | 877
21 | C[C@@H](NC(=O)[C@@H]1C[C@H]2C[C@H]2N1C(=O)Cn1nc(C(N)=O)c2ccccc21)[C@H]1CC1(Cl)Cl [Example 36, 1-(2-{(1R,3S,5R)-3-[(R)-1-((R)-2,2-Dichloro-cyclopropyl)-ethylcarbamoyl]-2-aza-bicyclo[3.1.0]hex-2-yl}-2-oxo-ethyl)-1H-indazole-3-carboxylic acid amide] | 25
22 | CC(=O)c1nn(CC(=O)N2[C@@H]3C[C@@H]3C[C@H]2C(=O)NCC2C(C)(C)C2(C)C)c2ncccc12 [Example 2, (1R,3S,5R)-2-[2-(3-Acetyl-pyrazolo[3,4-b]pyridin-1-yl)-acetyl]-2-aza-bicyclo[3.1.0] hexane-3-carboxylic acid (2,2,3,3-tetramethyl-cyclopropylmethyl)-amide] | 1850
23 | CC(=O)c1nn(CC(=O)N2[C@@H]3C[C@@H]3C[C@H]2C(=O)NCC2CCCC(C)(C)C2)c2cnccc12 (single isomer, unassigned; dia 2) [Example 18] | 389

Same assay, conditions: IC50, Factor D inhibition data using Method 1; recombinant human factor D 10 nM, substrate Z-Lys-thiobenzyl, fluorescence

Row | SMILES | IC50 [nM]
24 | CC1C(CNC(=O)[C@@H]2C[C@H]3C[C@H]3N2C(=O)Cn2nc(C(N)=O)c3ccncc32)C1(Cl)Cl (single isomer, unassigned; dia 2) [Example 82, 1-(2-{(1R,3S,5R)-3-[((1R,3R) or (1S,3S)-2,2-Dichloro-3-methyl-cyclopropylmethyl)-carbamoyl]-2-aza-bicyclo[3.1.0]hex-2-yl}-2-oxo-ethyl)-1H-pyrazolo[3,4-c]pyridine-3-carboxylic acid amide-Dia 2] | 85
25 | NC(=O)c1nn(CC(=O)N2[C@@H]3C[C@@H]3C[C@H]2C(=O)NC(CO)C2CC2(Cl)Cl)c2ccccc12 (single isomer, unassigned; dia 3) [Example 50] | 7300
26 | CC1CCC(CNC(=O)[C@@H]2C[C@H]3C[C@H]3N2C(=O)Cn2nc(C(N)=O)c3ccccc32)C1 (single isomer, unassigned; dia 4) [Example 91] | 46
27 | CC(=O)c1nn(CC(=O)N2[C@@H]3C[C@@H]3C[C@H]2C(=O)NCC2C(C)C2(Cl)Cl)c2ccc(OCc3ncccn3)cc12 (single isomer, unassigned; dia 1) [Example 75, (1R,3S,5R)-2-{2-[3-Acetyl-5-(pyrimidin-2-ylmethoxy)-indazol-1-yl]-acetyl}-2-aza-bicyclo[3.1.0] hexane-3-carboxylic acid ((1R,3R) or (1S,3S)-2,2-dichloro-3-methyl-cyclopropylmethyl)-amide-Dia 1] | 7
